The subject of series [1] is human T cells. Particulars: cited from earlier work.
In series [2] the test system is HIV-1 reverse transcriptase (nevirapine)-resistant. Kind of series: HIV-1 infection of TZM reporter cells, β-galactosidase. The format is cell-based. Particulars: read-out: EC50, inhibition of HIV-1 infection. From the text: (§1) the reverse transcriptase inhibitor-resistant HIV-1 variant (nevirapine-resistant N119), the protease inhibitor-resistant HIV-1 variant (saquinavir-resistant), and the naturally occurring primary ALV-resistant variant CMU08 (contributed by Kenrad Nelson) were obtained from the AIDS Research and Reference Reagent Program. Lab-adapted wild-type NL4.3 and the ALV-resistant V86P/H87Q/I91V/M96I NL4.3 capsid mutant variant were described previously. For infection scoring, TZM-bl target cells (contributed by J. C. Kappes, X. Wu, and Tranzyme, Inc.) obtained through the AIDS Research and Reference Reagent Program were exposed to wild-type or drug-resistant HIV-1 variants (1 ng of p24) together with increasing concentrations of DMSO or CypI. HIV-1 infection was quantified 48 h post-infection by measuring β-galactosidase activity in cell lysates.
(§2) We then tested the efficacy of CPI-431-32 and ALV against a panel of drug-resistant HIV-1 and HCV variants. Specifically, we measured CPI-431-32 EC50 on a reverse transcriptase inhibitor-resistant HIV-1 variant (nevirapine-resistant), a protease inhibitor-resistant HIV-1 variant (saquinavir-resistant), and two partially ALV-resistant HIV-1 variants—a lab-adapted resistant variant (V86P/H87Q/I91V/M96I capsid mutant) and a naturally occurring primary partially resistant variant (CMU08). […] HIV-1 infection was quantified 48 h post-infection by measuring β-galactosidase activity in cell lysates.

The subject of series [3] is HIV-1 ALV-resistant (CMU8). Described as above. As to conditions: read-out: EC50, inhibition of HIV-1 infection. It counts as cell-based.
Description: as §1, §2

For series [4], the system named is HIV-1 protease (saquinavir)-resistant. The description is as above. It counts as cell-based. As to conditions: read-out: EC50, inhibition of HIV-1 infection.
Description: as §1, §2

For series [5], the target named is T1, Human recombinant CypA (Homo sapiens, UniProt P62937).
T1 construct: purchased Atgen
Kind of series: α-chymotrypsin-coupled CypA isomerase inhibition assay. The format is biochemical. Particulars: one representative experiment, mean ± SD; 10 nM CypA, 5°C. On the procedure:
Succinyl-AAPF-pNA peptide substrate (Sigma) was dissolved to 3.2 mM in dried LiCl/trifluoroethanol. […] All solutions were equilibrated, and reactions conducted at 5°C. Reactions were initiated by mixing 95 μL reaction mix with 5 μL peptide preloaded in multiple wells of 96-well plates and measuring OD405 nm in each well at 6-sec intervals for 6 min using a BMG Polarstar Galaxy plate reader. Data were fitted with Graphpad Prism 6.0 to obtain first-order rate constants.

For series [6], the target named is CypA-HCV NS5A complex (Homo sapiens, UniProt P62937). Put plainly: CypA-HCV NS5A interaction ELISA. As to conditions: Table 2; NS5A-His on GST-CypA-coated plates, 16 h at 4°C; read-out: IC50, inhibition of NS5A binding to CypA. On the procedure: Recombinant GST-CypA, full-length HCV NS5A Con1 (pET-Ub-NS5A Con1-His) and HIV-1 capsid NL4.3 (pET-capsid-His) were expressed and purified as described previously. Inhibition of CypA-HCV NS5A and CypA-HIV-1 capsid interactions by the CypI […] were conducted as we described previously.
CypI are thought to inhibit the infection of HIV-1 and HCV mostly by preventing CypA-HIV-1 capsid and CypA-HCV NS5A interactions, respectively. The potency of CypI at inhibiting these interactions was determined using an ELISA assay previously developed in our laboratory. For analyzing CypA-HCV NS5A interactions, recombinant NS5A-His was added to GST-CypA-coated wells for 16 h at 4°C in the absence or presence of CypI, followed by detection of captured NS5A-His with anti-His antibodies. A similar assay was used for CypA-HIV-1 interactions except with recombinant His-tagged HIV-1 capsid.
A general note: ELISA stands for enzyme-linked immunosorbent assay.

The subject of series [7] is HIV-1 JR-CSF. Kind of series: HIV-1/HCV co-culture co-infection, HIV-1 p24 ELISA. It counts as cell-based. On the procedure: CD4+ T-lymphocytes and Huh7.5.1 cells uninfected or infected for 3 h as described above were mixed in a single flask and HIV-1 and HCV replication monitored over a period of 3 weeks as described above.
HIV-1 target cells—CD4+ T-lymphocytes—and HCV target cells—hepatoma cells—were placed in a single chamber (flask), exposed to both HIV-1 and HCV, and viral replication monitored over time by p24 capsid and core ELISAs, respectively.
CD4+ T-lymphocytes (A) and Huh7.5.1 cells (B) (0.5 x 10^6 cells) (triplicates) were exposed to HIV-1 JR-CSF and HCV JFH-1. Drugs (2 μM) were added 3 h pre-viral exposure (top panels) or 3 days post-viral exposure (bottom panels). Viral replications were monitored by HIV-1 p24 and HCV core ELISAs. C. CD4+ T-lymphocytes (0.5 x 10^6 cells) (triplicates) were exposed to HIV-1 JR-CSF. Drugs were initially added 3 days post-viral exposure (2 μM) and then daily (0.5 μM). Viral replications were monitored by HIV-1 p24 and HCV core ELISAs. […] D. Model for the HIV-1/HCV co-culture system.

The subject of series [8] is HIV-1 NL4.3. Kind of series: HIV-1 nuclear import analysis, integrase Western blot of cytoplasmic and nuclear extracts. The format is cell-based. As to conditions: 2 μM; 6 h post-infection; nuclear extract. On the procedure:
CD4+ HeLa cells (10^7 cells) were infected with NL4.3 (1 μg of p24) derived from 293T-transfected cells in the presence or absence of CPI-431-32 (2 μM). Six hours post-infection, cells were fractionated using the Thermo Scientific NE-PER nuclear and cytoplasmic extraction kit (Life Technologies). Cytoplasmic and nuclear extracts were analyzed by Western blotting using anti-HIV-1 integrase (Abcam), anti-CypA (Abcam) and anti-histone H2 (Abcam) antibodies.
Fig 4 CPI-431-32 blocks HIV-1 reverse transcription and nuclear import. TZM cells were infected with DNase-treated NL4-3 HIV-1 together with DMSO or CPI-431-32 (2 μM). Target cell DNA was isolated at the indicated times and was used to detect early (A) and late HIV-1 reverse transcripts (B). TZM cells were infected with NL4.3 in the presence or absence of CPI-431-32 (2 μM). Six hours post-infection, cells were fractionated and cytoplasmic and nuclear extracts analyzed by Western blotting (C). […]
To further elucidate the effects of CypA-capsid disruption, we analyzed how CPI-431-32 affects the distribution of incoming HIV-1 cores within the first 6 hours of infection as determined by the presence of the HIV-1 integrase protein. TZM cells were infected with HIV-1 NL4.3 for 6 h in the absence or presence of CPI-431-32, then fractionated into cytosolic and nuclear extracts for quantitation of HIV-1 integrase by Western blotting. […]
On the technique in general: A western blot detects proteins with antibodies after separation by electrophoresis.

Setting [9] is: Human immunodeficiency virus 1, TZM, 48 h.
Setting [10] is: drug treatments begun 3 h before virus addition.
Where [11] appears, read: single dose added 3 days post-infection.

Structures are written as SMILES. Like-named read-outs stand apart in the source and are kept apart here. Non-standard residues stand in square brackets, D forms with d. Residues, ends and D or L forms follow the SMILES beside them. NMeThr(4R-Me,4-(CH2)6NHAc) = CN[C@H](C(=O)O)[C@H](O)[C@H](C)CCCCCCNC(C)=O; NMeL = CN[C@@H](CC(C)C)C(=O)O; NMeV = CN[C@H](C(=O)O)C(C)C; dNMeA = CN[C@H](C)C(=O)O; Abu = CC[C@H](N)C(=O)O

As usually defined, the EC50 is the midpoint of the concentration-response curve. In general, IC50 refers to the concentration needed to halve the response being measured.

T1 sequence (P62937 whole entry): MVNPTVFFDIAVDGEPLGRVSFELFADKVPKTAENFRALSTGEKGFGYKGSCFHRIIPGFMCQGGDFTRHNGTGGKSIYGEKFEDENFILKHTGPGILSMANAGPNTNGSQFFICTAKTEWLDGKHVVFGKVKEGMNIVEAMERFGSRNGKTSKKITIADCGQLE
Sequence of CypA-HCV NS5A complex (P62937 whole entry, one chain of several): as the sequence (P62937 whole entry) above

For the compound `C/C=C/C[C@@H](C)[C@@H](O)[C@H]1C(=O)N[C@@H](CC)C(=O)N(C)[C@H](C)C(=O)N(CC)[C@@H](C(C)C)C(=O)N[C@@H](C(C)C)C(=O)N(C)[C@@H](CC(C)C)C(=O)N[C@@H](C)C(=O)N[C@H](C)C(=O)N(C)[C@@H](CC(C)C)C(=O)N(C)[C@@H](CC(C)C)C(=O)N(C)[C@@H](C(C)C)C(=O)N1C` [ALV, Alisporivir], the “Cellular toxicity (in words)” value in series [1] is listed as “lack of cellular toxicity”. The EC50 turned out to be 100 ± 20 nM in series [2] (setting [9]), 5600 ± 400 nM in series [3] (setting [9]) and 160 ± 20 nM in series [4] (setting [9]). The IC50 amounted to 2.8 ± 0.4 nM in series [5] and 420 ± 50 nM in series [6]. The figures for the “Effect on HIV-1 replication (in words)” value in series [7] (setting [10]) and in series [7] (setting [11]) were “totally prevented HIV-1 replication” and “a small degree of replication occurred within the first 3 days of addition”, respectively.
For the compound `CC[C@@H]1NC(=O)[C@H]([C@H](O)[C@H](C)CCCCCCNC(C)=O)N(C)C(=O)[C@H](C(C)C)N(C)C(=O)[C@H](CC(C)C)N(C)C(=O)[C@H](CC(C)C)N(C)C(=O)[C@@H](C)NC(=O)[C@H](C)NC(=O)[C@H](CC(C)C)N(C)C(=O)[C@H](C(C)C)NC(=O)[C@H](CC(C)C)N(C)C(=O)[C@@H](C)N(C)C1=O` [CPI-431-32] (cyclo(A[dA][NMeL][NMeL][NMeV][NMeThr(4R-Me,4-(CH2)6NHAc)][Abu][dNMeA][NMeL]V[NMeL])), the EC50 in series [2] (HIV-1 reverse transcriptase (nevirapine)-resistant, TZM cells, 48 h post-infection) is 30 ± 10 nM; in series [3] (HIV-1 ALV-resistant (CMU8), TZM cells, 48 h post-infection), 2100 ± 100 nM; in series [4] (HIV-1 protease (saquinavir)-resistant, TZM cells, 48 h post-infection) it was 70 ± 20 nM. Besides, the IC50 in series [5] worked out at 1.8 ± 0.6 nM; in series [6] it was 180 ± 30 nM. Also, the “Effect on HIV-1 replication (in words)” value in series [7] (setting [10]) is given as “totally prevented HIV-1 replication”; in series [7] (setting [11]), “halted HIV-1 replication”. The “Nuclear accumulation of HIV-1 integrase (in words)” value in series [8] is “completely prevented the nuclear accumulation of integrase”.
